Target: vaccinia-related kinase 1 (VRK1) (Homo sapiens, UniProt Q99986)
Experiment: biochemical
Assay type: binding

Sequence of vaccinia-related kinase 1 (VRK1) (Q99986 whole entry): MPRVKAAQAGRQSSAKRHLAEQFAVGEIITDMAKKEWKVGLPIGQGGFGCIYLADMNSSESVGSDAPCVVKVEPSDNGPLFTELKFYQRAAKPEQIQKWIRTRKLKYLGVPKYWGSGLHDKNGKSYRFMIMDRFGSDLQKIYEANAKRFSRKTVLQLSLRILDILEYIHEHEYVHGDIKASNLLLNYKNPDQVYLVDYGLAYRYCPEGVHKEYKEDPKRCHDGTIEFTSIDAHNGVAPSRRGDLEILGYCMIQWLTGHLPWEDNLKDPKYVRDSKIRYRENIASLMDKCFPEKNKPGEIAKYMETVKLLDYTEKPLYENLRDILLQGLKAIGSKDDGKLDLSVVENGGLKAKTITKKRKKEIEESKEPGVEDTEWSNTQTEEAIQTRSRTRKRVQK

With `C[C@H]1[C@H](C)CC[C@]2(C(=O)O)CC[C@]3(C)C(=CC[C@@H]4[C@@]5(C)CC[C@H](O)C(C)(C)[C@@H]5CC[C@]43C)[C@H]12` [UA, (1S,2R,4aS,6aR,6aS,6bR,8aR,10S,12aR,14bS)-10-hydroxy-1,2,6a,6b,9,9,12a-heptamethyl-2,3,4,5,6,6a,7,8,8a,10,11,12,13,14b-tetradecahydro-1H-picene-4a-carboxylic acid] as the molecule, how does the Kd read?
Its Kd is 731 nM.

Source: paper PMC4585938, “Ursolic acid exerts anti-cancer activity by suppressing vaccinia-related kinase 1-mediated damage repair in lung cancer cells” (Scientific Reports, 2015)
